Laboratory results taken from ChEMBL document CHEMBL2413072, “Synthesis and in vitro anticancer studies of novel C-2 arylidene congeners of lantadenes” (2013).

Key:
Format in all cases: functional
[1] = tested on: KM12; experiment: Growth inhibition of human KM12 cells by sulforhodamine B assay
[2] = tested on: HCT-15; experiment: Growth inhibition of human HCT15 cells by sulforhodamine B assay
[3] = tested on: COLO 205; experiment: Growth inhibition of human COLO205 cells by sulforhodamine B assay
[4] = tested on: NCI-H460; experiment: Growth inhibition of human NCI-H460 cells by sulforhodamine B assay
[5] = tested on: MOLT-4; experiment: Growth inhibition of human MOLT4 cells by sulforhodamine B assay
[6] = tested on: IGROV-1; experiment: Growth inhibition of human IGROV1 cells assessed as cell growth at 10^-8 M by sulforhodamine B assay; conditions: read-out: Activity
[7] = tested on: MDA-MB-435; experiment: Growth inhibition of human MDA-MB-435 cells assessed as cell growth at 10^-8 M by sulforhodamine B assay; conditions: read-out: Activity
[8] = tested on: HCT-15; experiment: Growth inhibition of human HCT15 cells assessed as cell growth at 10^-8 M by sulforhodamine B assay; conditions: read-out: Activity
[9] = tested on: COLO 205; experiment: Growth inhibition of human COLO205 cells assessed as cell growth at 10^-8 M by sulforhodamine B assay; conditions: read-out: Activity
[10] = tested on: RPMI-8226; experiment: Growth inhibition of human RPMI8226 cells assessed as cell growth at 10^-8 M by sulforhodamine B assay; conditions: read-out: Activity
[11] = tested on: MDA-MB-231; experiment: Growth inhibition of human MDA-MB-231 cells by sulforhodamine B assay
[12] = tested on: MCF7; experiment: Growth inhibition of human MCF7 cells by sulforhodamine B assay
[13] = tested on: A498; experiment: Growth inhibition of human A498 cells by sulforhodamine B assay
[14] = tested on: OVCAR-3; experiment: Growth inhibition of human OVCAR3 cells by sulforhodamine B assay
[15] = tested on: M14; experiment: Growth inhibition of human M14 cells by sulforhodamine B assay
[16] = tested on: Malme-3M; experiment: Growth inhibition of human MALME-3M cells by sulforhodamine B assay
[17] = tested on: T47D; experiment: Growth inhibition of human T47D cells assessed as cell growth at 10^-4 M by sulforhodamine B assay; conditions: read-out: Activity
[18] = Growth inhibition of human Hs 578T cells assessed as cell growth at 10^-4 M by sulforhodamine B assay; conditions: read-out: Activity
[19] = tested on: UO-31; experiment: Growth inhibition of human UO31 cells assessed as cell growth at 10^-4 M by sulforhodamine B assay; conditions: read-out: Activity
[20] = tested on: OVCAR-4; experiment: Growth inhibition of human OVCAR4 cells assessed as cell growth at 10^-4 M by sulforhodamine B assay; conditions: read-out: Activity
[21] = tested on: IGROV-1; experiment: Growth inhibition of human IGROV1 cells assessed as cell growth at 10^-4 M by sulforhodamine B assay; conditions: read-out: Activity
[22] = tested on: SNB-75; experiment: Growth inhibition of human SNB75 cells assessed as cell growth at 10^-4 M by sulforhodamine B assay; conditions: read-out: Activity
[23] = tested on: SNB-19; experiment: Growth inhibition of human SNB19 cells assessed as cell growth at 10^-4 M by sulforhodamine B assay; conditions: read-out: Activity
[24] = tested on: SF-539; experiment: Growth inhibition of human SF539 cells assessed as cell growth at 10^-4 M by sulforhodamine B assay; conditions: read-out: Activity
[25] = tested on: KM12; experiment: Growth inhibition of human KM12 cells assessed as cell growth at 10^-4 M by sulforhodamine B assay; conditions: read-out: Activity
[26] = tested on: MDA-MB-231; experiment: Growth inhibition of human MDA-MB-231 cells assessed as cell growth at 10^-6 M by sulforhodamine B assay; conditions: read-out: Activity
[27] = tested on: UO-31; experiment: Growth inhibition of human UO31 cells assessed as cell growth at 10^-6 M by sulforhodamine B assay; conditions: read-out: Activity
[28] = tested on: TK-10; experiment: Growth inhibition of human TK10 cells assessed as cell growth at 10^-6 M by sulforhodamine B assay; conditions: read-out: Activity
[29] = tested on: 786-0; experiment: Growth inhibition of human 786-0 cells assessed as cell growth at 10^-6 M by sulforhodamine B assay; conditions: read-out: Activity
[30] = tested on: IGROV-1; experiment: Growth inhibition of human IGROV1 cells assessed as cell growth at 10^-6 M by sulforhodamine B assay; conditions: read-out: Activity
[31] = tested on: UACC-62; experiment: Growth inhibition of human UACC62 cells assessed as cell growth at 10^-6 M by sulforhodamine B assay; conditions: read-out: Activity
[32] = tested on: Malme-3M; experiment: Growth inhibition of human MALME-3M cells assessed as cell growth at 10^-6 M by sulforhodamine B assay; conditions: read-out: Activity
[33] = tested on: SR; experiment: Growth inhibition of human SR cells assessed as cell growth at 10^-6 M by sulforhodamine B assay; conditions: read-out: Activity
[34] = tested on: BT-549; experiment: Growth inhibition of human BT549 cells assessed as cell growth at 10^-7 M by sulforhodamine B assay; conditions: read-out: Activity
[35] = tested on: RXF 393; experiment: Growth inhibition of human RXF393 cells assessed as cell growth at 10^-7 M by sulforhodamine B assay; conditions: read-out: Activity
[36] = tested on: OVCAR-8; experiment: Growth inhibition of human OVCAR8 cells assessed as cell growth at 10^-7 M by sulforhodamine B assay; conditions: read-out: Activity
[37] = tested on: OVCAR-5; experiment: Growth inhibition of human OVCAR5 cells assessed as cell growth at 10^-7 M by sulforhodamine B assay; conditions: read-out: Activity
[38] = tested on: PC-3; experiment: Growth inhibition of human PC3 cells assessed as cell growth at 10^-8 M by sulforhodamine B assay; conditions: read-out: Activity
[39] = read-out: LC50 (the source's name)
[40] = read-out: pLC50 (the source's name) (converted)

C/C=C(/C)C(=O)O[C@@H]1CC(C)(C)C[C@H]2C3=CC[C@@H]4[C@@]5(C)CCC(=O)C(C)(C)[C@@H]5CC[C@@]4(C)[C@]3(C)CC[C@@]12C(=O)O [LANTADENE A]
GI50 ([1]; read-out: GI50): 3.52 µM | LC50 (50% net cell kill) ([1]; read-out: LC50): > 100 µM | TGI ([1]; read-out: TGI): > 100 µM | GI50 ([1]; read-out: pGI50 (converted)): 3.55 µM | LC50 (50% net cell kill) ([1]; read-out: pLC50 (converted)): > 100 µM | TGI ([1]; read-out: pTGI (converted)): > 100 µM | GI50 ([2]; read-out: GI50): 3.17 µM | LC50 (50% lethal concentration) ([2]; read-out: LC50): > 100 µM | TGI ([2]; read-out: TGI): > 100 µM | GI50 ([2]; read-out: pGI50 (converted)): 3.16 µM | LC50 (50% lethal concentration) ([2]; read-out: pLC50 (converted)): > 100 µM | TGI ([2]; read-out: pTGI (converted)): > 100 µM | GI50 ([3]; read-out: GI50): 2640 nM | LC50 ([3]; read-out: LC50): 89.7 µM | TGI ([3]; read-out: TGI): 6.8 µM | GI50 ([3]; read-out: pGI50 (converted)): 2630 nM | LC50 ([3]; read-out: pLC50 (converted)): 89.1 µM | TGI ([3]; read-out: pTGI (converted)): 6.76 µM | GI50 ([4]; read-out: GI50): 3.59 µM | LC50 ([4]; read-out: LC50): > 100 µM | TGI ([4]; read-out: TGI): > 100 µM | GI50 ([4]; read-out: pGI50 (converted)): 3.63 µM | LC50 ([4]; read-out: pLC50 (converted)): > 100 µM | TGI ([4]; read-out: pTGI (converted)): > 100 µM | GI50 ([5]; read-out: GI50): 3.34 µM | CC50 [5, 39]: > 100 µM | TGI ([5]; read-out: TGI): > 100 µM | GI50 ([5]; read-out: pGI50 (converted)): 3.31 µM | CC50 [5, 40]: > 100 µM | TGI ([5]; read-out: pTGI (converted)): > 100 µM | growth at 0.01 µM [6]: 108% | growth at 0.01 µM [7]: 96% | growth at 0.01 µM [8]: 100% | growth at 0.01 µM [9]: 106% | growth at 0.01 µM [10]: 102% | GI50 ([11]; read-out: GI50): 4.53 µM | CC50 [11, 39]: > 100 µM | TGI ([11]; read-out: TGI): 33.4 µM | GI50 ([11]; read-out: pGI50 (converted)): 4.57 µM | CC50 [11, 40]: > 100 µM | TGI ([11]; read-out: pTGI (converted)): 33.1 µM | GI50 ([12]; read-out: GI50): 3.6 µM | CC50 [12, 39]: > 100 µM | TGI ([12]; read-out: TGI): > 100 µM | GI50 ([12]; read-out: pGI50 (converted)): 3.63 µM | CC50 [12, 40]: > 100 µM | TGI ([12]; read-out: pTGI (converted)): > 100 µM | GI50 ([13]; read-out: GI50): 2060 nM | CC50 [13, 39]: > 100 µM | TGI ([13]; read-out: TGI): 11.6 µM | GI50 ([13]; read-out: pGI50 (converted)): 2040 nM | CC50 [13, 40]: > 100 µM | TGI ([13]; read-out: pTGI (converted)): 11.7 µM | GI50 ([14]; read-out: GI50): 5.89 µM | CC50 [14, 39]: > 100 µM | TGI ([14]; read-out: TGI): > 100 µM | GI50 ([14]; read-out: pGI50 (converted)): 5.89 µM | CC50 [14, 40]: > 100 µM | TGI ([14]; read-out: pTGI (converted)): > 100 µM | GI50 ([15]; read-out: GI50): 4.53 µM | CC50 [15, 39]: > 100 µM | TGI ([15]; read-out: TGI): > 100 µM | GI50 ([15]; read-out: pGI50 (converted)): 4.57 µM | CC50 [15, 40]: > 100 µM | TGI ([15]; read-out: pTGI (converted)): > 100 µM | GI50 ([16]; read-out: GI50): 7.91 µM | CC50 [16, 39]: > 100 µM | TGI ([16]; read-out: TGI): > 100 µM | GI50 ([16]; read-out: pGI50 (converted)): 7.94 µM | CC50 [16, 40]: > 100 µM | TGI ([16]; read-out: pTGI (converted)): > 100 µM | growth at 100 µM [17]: 23% | growth at 100 µM [18]: 21% | growth at 100 µM [19]: 6% | growth at 100 µM [20]: 29% | growth at 100 µM [21]: 30% | growth at 100 µM [22]: 33% | growth at 100 µM [23]: 23% | growth at 100 µM [24]: 17% | growth at 100 µM [25]: 20% | growth at 1 µM [26]: 92% | growth at 1 µM [27]: 87% | growth at 1 µM [28]: 101% | growth at 1 µM [29]: 93% | growth at 1 µM [30]: 108% | growth at 1 µM [31]: 70% | growth at 1 µM [32]: 91% | growth at 1 µM [33]: 80% | growth at 0.1 µM [34]: 95% | growth at 0.1 µM [35]: 91% | growth at 0.1 µM [36]: 98% | growth at 0.1 µM [37]: 100% | growth at 0.01 µM [38]: 93%
